We go through five cell lines from the supplement of paper PMC10307832.

What all share (assay): relative viability (nuclei count vs DMSO), 5 days (fraction); higher = more cells survive
Compound in experiment [1]: C1/C(=C\C2=CC=CS2)/C(=O)/C(=C/C3=CC=CS3)/C1 + Cc1nc(Nc2ncc(C(=O)Nc3c(C)cccc3Cl)s2)cc(N2CCN(CCO)CC2)n1 [Dasatinib] (partner 0.075 µM)
The gist of the method: (§1)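 Lung cancer cell lines, seeded in 1536-well plates, were treated the following day by pin tool with a single drug or with five library-drug doses (not always all listed) in √10 steps on top of a fixed anchor-drug dose. Cells were fixed and nuclei stained in one step after 5 days, and nuclei were counted. Relative viability is the nuclei count for treated wells divided by that for vehicle wells, reported as medians of duplicate plates.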

Compound in the experiment “TPCA-1 + AZD7762”: C1=CC(=CC=C1C2=CC(=C(S2)NC(=O)N)C(=O)N)F [TPCA-1] + NC(=O)Nc1cc(-c2cccc(F)c2)sc1C(=O)N[C@H]1CCCNC1 [AZD7762] (partner 0.2 µM)
The gist of the method:
as §1

Compound in the experiment “TPCA-1 + OSI-027”: C1=CC(=CC=C1C2=CC(=C(S2)NC(=O)N)C(=O)N)F [TPCA-1] + COc1cccc2cc(-c3nc([C@H]4CC[C@H](C(=O)O)CC4)n4ncnc(N)c34)[nH]c12 [OSI-027] (partner 0.5 µM)
The method in brief: as §1

Compound in experiment [2]: C1/C(=C\C2=CC=CS2)/C(=O)/C(=C/C3=CC=CS3)/C1 + CC(=O)c1c(C)c2cnc(Nc3ccc(N4CCNCC4)cn3)nc2n(C2CCCC2)c1=O [Palbociclib] (partner 0.5 µM)
The gist of the method:
as §1

On to NCI-H3122, for which the relative viability in experiment [1] (first compound 0.2 µM) came out at 0.843; in experiment [1] (first compound 0.6325 µM), 0.836; in experiment [1] (first compound 2 µM) it was 1.05; in experiment [1] (first compound 6.325 µM), 0.827; in experiment [1] (first compound 20 µM), 0.82; in the experiment with TPCA-1 + AZD7762 (first compound 0.04 µM) it was 1.1. In addition, the relative viability came to 0.97 with TPCA-1 + AZD7762 (first compound 0.1265 µM); 1.04 in the experiment with TPCA-1 + AZD7762 (first compound 0.4 µM); 0.941 with TPCA-1 + AZD7762 (first compound 1.265 µM); 0.957 in the experiment with TPCA-1 + AZD7762 (first compound 4 µM); 1.29 with TPCA-1 + OSI-027 (first compound 0.04 µM); 0.837 with TPCA-1 + OSI-027 (first compound 0.1265 µM). In addition, the relative viability with TPCA-1 + OSI-027 (first compound 0.4 µM) came to 0.954; in the experiment with TPCA-1 + OSI-027 (first compound 1.265 µM) it was 0.854; with TPCA-1 + OSI-027 (first compound 4 µM), 0.517; in experiment [2] (first compound 0.2 µM), 0.178; in experiment [2] (first compound 0.6325 µM), 0.175; in experiment [2] (first compound 2 µM), 0.172. In addition, the figures for the relative viability in experiment [2] (first compound 6.325 µM) and in experiment [2] (first compound 20 µM) were 0.201 and 0.171, respectively.
As for PC-3 [JPC-3], the relative viability came out at 1.03 in experiment [1] (first compound 0.2 µM); 0.981 in experiment [1] (first compound 0.6325 µM); 1.04 in experiment [1] (first compound 2 µM); 0.856 in experiment [1] (first compound 6.325 µM); 0.948 in experiment [1] (first compound 20 µM); 0.844 in the experiment with TPCA-1 + AZD7762 (first compound 0.04 µM). Also, the relative viability in the experiment with TPCA-1 + AZD7762 (first compound 0.1265 µM) stood at 0.802; in the experiment with TPCA-1 + AZD7762 (first compound 0.4 µM), 0.85; in the experiment with TPCA-1 + AZD7762 (first compound 1.265 µM), 0.823; in the experiment with TPCA-1 + AZD7762 (first compound 4 µM), 0.655; with TPCA-1 + OSI-027 (first compound 0.04 µM), 0.83; with TPCA-1 + OSI-027 (first compound 0.1265 µM) it was 0.702. Further, the relative viability is 0.73 with TPCA-1 + OSI-027 (first compound 0.4 µM); 0.654 with TPCA-1 + OSI-027 (first compound 1.265 µM); 0.615 with TPCA-1 + OSI-027 (first compound 4 µM); 0.587 in experiment [2] (first compound 0.6325 µM); 0.5 in experiment [2] (first compound 2 µM); 0.43 in experiment [2] (first compound 6.325 µM). The relative viability in experiment [2] (first compound 20 µM) worked out at 0.523.
With PC-14, the relative viability stood at 0.32 in experiment [1] (first compound 0.2 µM); 0.264 in experiment [1] (first compound 0.6325 µM); 0.285 in experiment [1] (first compound 2 µM); 0.241 in experiment [1] (first compound 6.325 µM); 0.222 in experiment [1] (first compound 20 µM); 0.471 with TPCA-1 + AZD7762 (first compound 0.04 µM). Further, the relative viability was found to be 0.305 in the experiment with TPCA-1 + AZD7762 (first compound 0.1265 µM); 0.374 in the experiment with TPCA-1 + AZD7762 (first compound 0.4 µM); 0.696 with TPCA-1 + AZD7762 (first compound 1.265 µM); 0.43 in the experiment with TPCA-1 + AZD7762 (first compound 4 µM); 0.954 in the experiment with TPCA-1 + OSI-027 (first compound 0.04 µM); 0.717 with TPCA-1 + OSI-027 (first compound 0.1265 µM). Besides, the relative viability with TPCA-1 + OSI-027 (first compound 0.4 µM) amounted to 0.951; with TPCA-1 + OSI-027 (first compound 1.265 µM), 0.593; in the experiment with TPCA-1 + OSI-027 (first compound 4 µM), 0.341; in experiment [2] (first compound 0.2 µM), 0.668; in experiment [2] (first compound 0.6325 µM), 0.563; in experiment [2] (first compound 2 µM), 0.523. Moreover, the relative viability in experiment [2] (first compound 6.325 µM) was determined as 0.435; in experiment [2] (first compound 20 µM), 0.501.
On to RERF-LC-KJ, for which the relative viability in experiment [1] (first compound 0.2 µM) came to 0.858; in experiment [1] (first compound 0.6325 µM), 0.798; in experiment [1] (first compound 2 µM), 0.776; in experiment [1] (first compound 6.325 µM), 0.682; in experiment [1] (first compound 20 µM) it was 0.656; with TPCA-1 + AZD7762 (first compound 0.04 µM), 1.03. Besides, the relative viability with TPCA-1 + AZD7762 (first compound 0.1265 µM) is 0.844; with TPCA-1 + AZD7762 (first compound 0.4 µM), 0.914; in the experiment with TPCA-1 + AZD7762 (first compound 1.265 µM) it was 0.739; with TPCA-1 + AZD7762 (first compound 4 µM) it was 0.652; with TPCA-1 + OSI-027 (first compound 0.04 µM) it was 0.674; with TPCA-1 + OSI-027 (first compound 0.1265 µM), 0.489. The relative viability worked out at 0.565 with TPCA-1 + OSI-027 (first compound 0.4 µM); 0.532 with TPCA-1 + OSI-027 (first compound 1.265 µM); 0.485 with TPCA-1 + OSI-027 (first compound 4 µM); 1.04 in experiment [2] (first compound 0.2 µM); 1.2 in experiment [2] (first compound 0.6325 µM); 1.05 in experiment [2] (first compound 2 µM). Besides, the relative viability in experiment [2] (first compound 6.325 µM) came to 0.965; in experiment [2] (first compound 20 µM), 0.852.
On to SW 900, for which the relative viability in experiment [1] (first compound 0.2 µM) stood at 0.64; in experiment [1] (first compound 0.6325 µM), 0.773; in experiment [1] (first compound 2 µM) it was 0.769; in experiment [1] (first compound 6.325 µM), 0.574; in experiment [1] (first compound 20 µM) it was 0.671; with TPCA-1 + AZD7762 (first compound 0.4 µM) it was 0.685. Further, the relative viability with TPCA-1 + AZD7762 (first compound 1.265 µM) amounted to 0.631; with TPCA-1 + AZD7762 (first compound 4 µM), 0.586; with TPCA-1 + OSI-027 (first compound 0.04 µM), 0.705; in the experiment with TPCA-1 + OSI-027 (first compound 0.1265 µM), 0.576; with TPCA-1 + OSI-027 (first compound 0.4 µM) it was 0.768; with TPCA-1 + OSI-027 (first compound 1.265 µM), 0.463. The relative viability was 0.475 in the experiment with TPCA-1 + OSI-027 (first compound 4 µM); 0.578 in experiment [2] (first compound 0.2 µM); 0.524 in experiment [2] (first compound 0.6325 µM); 0.616 in experiment [2] (first compound 2 µM); 0.451 in experiment [2] (first compound 6.325 µM); 0.653 in experiment [2] (first compound 20 µM).
